Patent US5656662A, “Synthesis of optically pure 4-alkenyl- or 4-alkanyl-2-hydroxytetronic acids” (The Ohio State University Research Foundation, priority 1995, dated 1997)

Legend:
Format in all cases: cell-based
TNFα = TNFα production from purified human monocytes; parameters: key to EFFECT on TNFα: NE: No effect; INHIB: Inhibition; STIM: Stimulation; IC40: 40% Inhibitory Concentration; EC50: 50% Effective Concentration; TC: Tolerated Concentration; IA: Interferes with Assay
Method: (§1) This assay determines the effect of test compounds on the production of TNFα from purified human monocytes. Compounds are tested for their ability to downregulate the production of TNFα in activated monocytes, or upregulate secretion of TNFα in unstimulated monocytes. Test compounds are incubated for sixteen hours with purified human monocytes at four dilutions over a range of three log10 concentrations. Where appropriate, lipopolysaccharide (LPS) is used to stimulate the monocytes.
(§2) The level of TNFα in the resultant supernatants is quantitated in a solid phase Enzyme-linked Immunoassay (EIA) performed in a 96 well format. TNFα present in the samples is captured by a specific monoclonal antibody immobilized on the well, and detected with an anti-TNFα polyclonal antibody conjugated to horse radish peroxidase, followed by an appropriate substrate. The levels of TNFα are determined by interpolation of the resultant color change in the substrate from a standard curve. All supernatants are tested in duplicate with controls and standards.
as §1, with “production of TNF from purified” for “production of TNFα from purified”, “incubated for sixteeen hours with” for “incubated for sixteen hours with”

IL-6 = IL-6 secretion from purified human monocytes; parameters: key: NE: No effect; INHIB: Inhibition; STIM: Stimulation; IC40: 40% Inhibitory Concentration; EC50: 50% Effective Concentration; TC: Tolerated Concentration; IA: Interferes with Assay
Method: This assay determines the effect of test compounds on the secretion of IL-6 from purified human monocytes. Compounds are tested for their ability to downregulate the production of IL-6 in activated monocytes, or upregulate secretion of IL-6 in unstimulated monocytes. Test compounds are incubated for sixteen hours with purified human monocytes at four dilutions over a range of three log10 concentrations. Where appropriate, lipopolysaccharide (LPS) is used to stimulate the monocytes.
as §2, with “IL-6” for “TNFα”, “probed” for “detected”, “anti-IL-6” for “anti-TNFα”, “horseradish” for “horse radish”

IL-8 = IL-8 secretion from purified human monocytes; parameters: key: NE: No effect; INHIB: Inhibition; STIM: Stimulation; IC40: 40% Inhibitory Concentration; EC50: 50% Effective Concentration; TC: Tolerated Concentration; IA: Interferes with Assay
Method: This assay determines the effect of test compounds on the secretion of IL-8 from purified human monocytes. Compounds are tested for their ability to downregulate the production of IL-8 in activated monocytes, or upregulate secretion of IL-8 in unstimulated monocytes. Test compounds are incubated for sixteen hours with purified human monocytes at four dilutions over a range of three log10 concentrations. Where appropriate, lipopolysaccharide (LPS) is used to stimulate the monocytes.
as §2, with “IL-8” for “TNFα”, “probed” for “detected”, “anti-IL-8” for “anti-TNFα”, “horseradish” for “horse radish”

LTB4 = LTB4 production by purified human monocytes; parameters: key: NE: No effect; INHIB: Inhibition; STIM: Stimulation; IC40: 40% Inhibitory Concentration; EC50: 50% Effective Concentration; TC: Tolerated Concentration; IA: Interferes with Assay
Method: (§3) This assay measures the ability of test compounds to modulate the amount of LTB4 produced by the oxygenation of arachidonic acid by 5-lipooxygenase produced by purified human monocytes. Compounds are tested for their ability to downregulate the secretion of LTB4 from activated monocytes, or upregulate secretion of LTB4 from unstimulated monocytes. Test compounds are incubated for ninety minutes with purified human monocytes at four dilutions over a range of three log10 concentrations. Where appropriate, zymosan is used to stimulate the monocytes.
(§4) The level of LTB4 in the resultant supernatants is quantitated by immunoassay performed in a 96 well format. LTB4 levels modulated by unknown compounds are determined by interpolation from a standard curve. All compounds are tested in duplicate with controls and standards.

peptidoleukotrienes = experiment: Peptidoleukotriene production by purified human monocytes; parameters: key: NE: No effect; INHIB: Inhibition; STIM: Stimulation; IC40: 40% Inhibitory Concentration; EC50: 50% Effective Concentration; TC: Tolerated Concentration; IA: Interferes with Assay
Method: as §3, with “procedure” for “assay”, “peptidoleukotrienes” for “LTB4 produced by the oxygenation of arachidonic acid by 5-lipooxygenase”, “peptidoleukotrienes” for “LTB4”
as §4, with “of peptidoleukotrienes” for “of LTB4”, “format. Peptidoleukotriene” for “format. LTB4”

phospholipase A2 = experiment: Cellular phospholipase A2 activity in human monocytes; parameters: key: NE: No effect; INHIB: Inhibition; STIM: Stimulation; IC40: 40% Inhibitory Concentration; EC50: 50% Effective Concentration; TC: Tolerated Concentration; IA: Interferes with Assay
Method: This assay measures the ability of test compounds to modulate the activity of the cellular phospholipase A2 in human monocytes. Compounds are tested for their ability to inhibit stimulate phospholipase A2 activity or activate basal activity in unstimulated monocytes. Test compounds are incubated for ninety minutes with purified human monocytes at four dilutions over a range of three log10 concentrations. Where appropriate, zymosan is used to stimulate the monocytes.
Monocytes with the arachidonyl moiety of phospholipids radiolabelled are utilized in a 96 well format. Percent release of radiolabelled fatty acid into the extracellular medium is quantified by liquid scintillation counting. All compounds are tested in duplicate with controls and standards.

For `CCCCCCCCCCCCCC/C=C\CC[C@@H]1OC(=O)C(O)=C1O` [(S)-3,4-Dihydroxy-5-[(Z)-3-octadecenyl]-2(5H)-furanone], the EC50 (TNFα; Homo sapiens, Monocyte, STIMULATED, STIM) was 38 µM, the “EFFECT on TNFα” value (TNFα; STIMULATED) was “STIM” and the “EFFECT on TNFα” value (TNFα; UNSTIMULATED) was “NE”. The “EFFECT on IL6” value (IL-6; STIMULATED) was “NE”, the “EFFECT on IL6” value (IL-6; UNSTIMULATED) was “NE” and the “EFFECT on IL8” value (IL-8; STIMULATED) was “NE”. The “EFFECT on IL8” value (IL-8; UNSTIMULATED) was “NE”, the “EFFECT on LTB4” value (LTB4; STIMULATED) was “NE” and the “EFFECT on LTB4” value (LTB4; UNSTIMULATED) was “NE”. The “EFFECT on PEPTIDOLEUKOTRIENES” value (peptidoleukotrienes; STIMULATED) was “NE”, the “EFFECT on PEPTIDOLEUKOTRIENES” value (peptidoleukotrienes; UNSTIMULATED) was “NE” and the “EFFECT on PLA2” value (phospholipase A2; STIMULATED) was “NE”. For the same molecule, the “EFFECT on PLA2” value (phospholipase A2; UNSTIMULATED) was “NE”.
